2 compounds from patent US20250319045A1, “TRANSETHOSOME-ENCAPSULATED AGENTS AND METHODS OF USE THEREOF” (Northwestern University, priority 2024, published 2025) can be followed below.

Data set [1] in a line: Encapsulation efficiency and drug loading by HPLC after ultrafiltration. The format is physicochemical. As to conditions: Z-Endoxifen in transethosomes. The method, then:
After cooling the transethosomes to room temperature, the remaining volume was 10 ml. The total drug concentration was determined by HPLC using 20 μL demulsified samples. 200 μL samples were collected into a 30 kDa ultrafiltration tube, added 1 mL of 25% ethanol, ultrafiltrated at 5000 rpm, and the drug concentration of subnatant was determined by HPLC.
Encapsulation efficiency was evaluated by HPLC. HPLC was performed using a WondaSil® C-18-WR column (4.6×150 mm, 5 μm pore size). The mobile phase included an A phase and a B phase at a ratio (A:B) of 30:70. The A phase contained 10 mM ammonium formate in water: 10 mM ammonium formate in methanol. The B phase contained 10 mM ammonium formate in methanol at a ratio of 40:60. Samples were prepared as follows. The solvent was prepared by mixing 10 mM ammonium formate in a solution containing water and acetonitrile at a ratio of 1:1 (v/v). Z-Endoxifen was diluted in the solvent at a concentration gradient of 5, 10, 25, 50, and 80 μg/mL. Samples were injected into the column at a volume of 20 μL and were passed through the column at a flow rate of 0.8 mL/min at a temperate of 30° C. The detection wavelength was 243 nm.
The following equations were used in Table 1: […]

Data set [2] is described as follows: Local tolerance and dermal toxicity test, Draize scoring. To be noted: after the 7th DNCB dose (third week), 0.05% in 95% ethanol.

In the case of `CC/C(=C(\c1ccc(O)cc1)c1ccc(OCCNC)cc1)c1ccccc1` [Z-Endoxifen, (Z)-endoxifen], in data set [1], the “Drug loading (%)” value is on record as 4.77% and the “Encapsulation efficiency (%)” value worked out at 92.34%.
`O=[N+]([O-])c1ccc(Cl)c([N+](=O)[O-])c1` [DNCB, 1-chloro-2,4-dinitrobenzene]: the entries for the “Erythema score (Draize)” value in data set [2] (3 of 10 animals) and in data set [2] (remaining 7 animals) were 2 and 1, respectively.
